The EC50 is the concentration that produces a half-maximal response. The AC50 is the concentration giving half of the maximal activity seen.

The source of these data is patent US20240316038A1, “APOL1 INHIBITORS AND METHODS OF USE” (Maze Therapeutics, Inc., priority 2021, published 2024).

Assay [1] addresses T1, APOL1 G2 (Homo sapiens, UniProt O14791, DEL388-389).
T1 construct: expressed in transfected cells; host or cells: HEK293 T-REx clonal lines: HEK T-REx/GCaMP6f/APOL1 G2 K6.3 in A1, HEK293/T-REx APOL1 G2/clone #2 in A2
T1 sequence (O14791 with tags, fused parts or gaps DEL388-389): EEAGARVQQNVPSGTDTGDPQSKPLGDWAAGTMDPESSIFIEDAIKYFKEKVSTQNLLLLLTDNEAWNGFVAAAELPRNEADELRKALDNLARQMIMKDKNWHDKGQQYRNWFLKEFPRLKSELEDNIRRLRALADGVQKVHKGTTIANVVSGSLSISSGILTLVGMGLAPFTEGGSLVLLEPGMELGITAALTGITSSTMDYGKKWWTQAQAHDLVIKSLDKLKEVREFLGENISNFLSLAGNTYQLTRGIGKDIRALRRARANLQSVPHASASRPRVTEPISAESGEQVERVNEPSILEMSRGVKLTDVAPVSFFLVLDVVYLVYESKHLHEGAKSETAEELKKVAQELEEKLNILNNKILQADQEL
Put plainly: Rescue of HEK293 cell death caused by overexpression of APOL1 (CellTiter-Glo luminescence), HEK293/T-REx APOL1 G2/clone #2. Format: cell-based. Particulars: reversal of cell death caused by overexpression of APOL1; geometric mean of at least 2 assay runs, † = single assay run (technical duplicate). The method in brief:
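HEK293/T-REx APOL1 G2 clone #2 cells, 5,000/well, induced with 6 ng/mL doxycycline and exposed to compound (8-point, 3-fold dilutions, 0.5% DMSO) for 17 h at 37 °C. Viability by CellTiter-Glo luminescence; EC50 for reversal of APOL1-induced death from a four-parameter logistic fit, geometric mean of ≥2 runs.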
For orientation: ATP-based viability assays read luminescence as a measure of living cells.

Assay [2] concerns the target T1, APOL1 G2. Put plainly: APOL1 calcium transport inhibition assay (GCaMP6f calcium influx, FLIPR) in HEK T-REx/GCaMP6f/APOL1 G2 K6.3 cells. Format: cell-based. Particulars: inhibition of APOL1-mediated calcium influx; geometric mean of at least 2 assay runs, † = single assay run (technical duplicate). The method in brief: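 HEK293 cells stably expressing GCaMP6f, APOL1 G2 induced 6 h with doxycycline (20 ng/mL added), then washed into Ca2+-free Tyrode's buffer pH 7.4. Compounds (8-point dose response) preincubated 10 min at room temperature, then Ca2+ injected to 5 mM final and influx read on FLIPR. AC50 reported as geometric mean of runs.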

Regarding `C[C@@H]1CN(CCc2cccc(Cl)c2)C[C@H]1COc1ccc(S(=O)(=O)CCCS(C)(=O)=O)cc1` (single isomer, unassigned) [Compound 177, (3S,4S or 3R,4R)-1-[2-(3-chlorophenyl)eth-yl]-3-{[4-(3-methanesulfonylpro-panesulfonyl)phe-noxy]methyl}-4-methylpyrrolidine], the EC50 on APOL1 G2 [1] is 1830 nM. Further, the AC50 on APOL1 G2 [2] came to 2860 nM.
For `CS(=O)(=O)c1ccc(OC[C@H](O)CNC(Cc2cccc(Cl)c2)C2CC2)cc1` (stereo partly drawn) [Compound 102, (2R)-1-((2-(3-chlorophenyl)-1-cyclopropylethyl)a-mino)-3-(4-(methylsulfonyl)phe-noxy)propan-2-ol] the same measures were above 21800 nM and 2190 nM.
`Cc1cc(C#N)cc(CCN2C[C@@H](COc3ccc(S(C)(=O)=O)cc3)[C@H](C)C2)c1` [Compound 198, 3-{2-[(3S,4S)-3-[(4-methanesulfonylphenoxy)methyl]-4-methylpyrrolidin-1-yl]ethyl}-5-methylbenzonitrile]: the EC50 on APOL1 G2 [1] was found to be 71.5 nM. Also, on APOL1 G2 [2], the AC50 turned out to be 197 nM.
For `CN(c1ccc(O[C@H]2C[C@H](NCCc3cccc(Cl)c3)C2)cc1)S(C)(=O)=O` [Compound 48, trans-N-(4-(3-((3-chlorophenethyl)amino)cyclobutoxy)phenyl)-N-methylmethanesulfonamide] the same measures were 2540 nM and 1920 nM.
The matching figures for `C[C@]1(O)CN(CCc2cccc(Cl)c2)C[C@@H]1COc1ccc(S(C)(=O)=O)cc1` (single isomer, unassigned) [Compound 206, (3R,4R or 3S,4S)-1-[2-(3-chlorophenyl)ethyl]-4-[(4-methanesulfonylphenoxy)methyl]-3-methylpyrrolidin-3-ol]: above 30000 nM and above 25000 nM.
The matching figures for `CN(c1ccc(OC[C@H](O)CNCCc2cccc(Cl)c2)cc1)S(C)(=O)=O` [Compound 87, (R)-N-(4-(3-((3-chlorophenethyl)a-mino)-2-hydroxypropoxy)phe-nyl)-N-methylmethanesulfon-amide]: 1850 nM and 352 nM.
As for `Cc1c(C#N)cc(Cl)cc1CCN1C[C@@H](COc2ccc(S(C)(=O)=O)cc2)C[C@H]1C` [Compound 141, 5-chloro-3-{2-[(2R,4S)-4-[(4-methanesulfon-ylphenoxy)meth-yl]-2-methyl-pyrrolidin-1-yl]-ethyl}-2-methyl-benzonitrile], the EC50 at APOL1 G2 [1] is 78.9 nM. Further, the concentration at half-maximal activity (AC50) at APOL1 G2 [2] is 737 nM.
Regarding `CC1CC(COc2ccc(S(C)(=O)=O)cc2)CN1CCc1cccc(C#N)c1` (single isomer, unassigned) [Compound 138, 3-{2-[(2R,4S or 2S,4R or 2R,4R or 2S,4S)-4-[(4-methanesulfon-ylphenoxy)meth-yl]-2-methyl-pyrrolidin-1-yl]-ethyl}benzo-nitrile], the half-maximal effective concentration (EC50) at APOL1 G2 [1] was 1970 nM. For the same compound, the AC50 on APOL1 G2 [2] is 2500 nM.
For `C[C@@H]1CN(CCc2cc(Cl)cc(C#N)c2)C[C@H]1COc1ccc(S(=O)(=O)C2CNC2)cc1` [Compound 173, 3-{2-[(3S,4S)-3-{[4-(azetidine-3-sulfonyl)phenoxy]methyl}-4-methylpyrrolidin-1-yl]ethyl}-5-chlorobenzonitrile] the same measures were 201 nM and 491 nM.
Consider `CN=S(C)(=O)c1ccc(OC[C@@H]2CN(CCc3cccc(C#N)c3)C[C@H]2C)cc1` (single isomer, unassigned) [Compound 171, 3-{2-[(3S,4S)-3-methyl-4-({4-[(S or R)-methyl(methylimi-no)oxo-λ^6-sulfanyl]phenoxy}methyl)pyrrolidin-1-yl]ethyl}benzonitrile], for which the EC50 at APOL1 G2 [1] was determined as 146 nM. For the same compound, the concentration at half-maximal activity (AC50) on APOL1 G2 [2] was 212 nM.
The matching figures for `CC1CC(COc2ccc(S(C)(=O)=O)cc2)CN1CCc1cccc(C#N)c1` (single isomer, unassigned) [Compound 136, rac-trans or cis-3-{2-[4-[(4-methanesulfon-ylphenoxy)meth-yl]-2-methyl-pyrrolidin-1-yl]-ethyl}benzo-nitrile]: 110 nM and 207 nM.
